{"source": "patent US10674724B2", "about": "“Method of activating immune response in plants” (priority 2012, dated 2020)", "key": {"NPR1 [1]": {"molecular_target": "T1, NPR1 (Arabidopsis thaliana, UniProt P93002)", "T1 construct": "made in house; host or cells: E. coli", "format": "binding", "conditions": "equilibrium dialysis", "experimental": "Given the dissociation reaction:\nThe data was analyzed by non-linear regression using GraphPad PRISM 4 and fitted to a one-site-binding rectangular hyperbola."}, "[2]": {"tested_on": "transcription activity of Δ513", "test": "in vivo plant transcription assay, Δ513:DB co-expressed with BTB/POZ", "format": "cell-based, Arabidopsis thaliana", "conditions": "1 mM salicylic acid in medium", "experimental": "Arabidopsis thaliana (Columbia) leaves were harvested from four-week-old plants grown at 21° C. (day) and 18° C. (night) with a ten-hour photoperiod and transferred to Petri dishes containing MS salts and micronutrients supplemented with B5 vitamins, 1% sucrose and 0.8% agar at a pH of 5.8. […] Coating of the gold particles and general procedures and preparation of the biolistic experiments were as per the manufacturer's instructions (Bio-Rad). After bombardment, leaves were kept in the conditions described above for a period of 24 hours before assaying. Enzyme assays were performed using the Dual-Luciferase Reporter Assay® system (Promega) following the manufacturer's instructions. Luminescence was measured on a Berthold Lumat LB9507 Luminometer (Bad Wildbad, Germany) and the data obtained represented the value of the reporter gene divided by the value of the internal standard and expressed as Relative Luciferase Units. To increase signal-to-noise ratio in some experiments, qPCR was performed to measure the amount of Firefly and Renilla Luciferases mRNA. The data was reported as Relative Expression and represented the value of the reporter mRNA divided by the value of the internal standard mRNA. The ratio obtained for Ga14 DB was assigned an arbitrary value of 1. […]\nIt was then determined whether or not the BTB/POZ could modulate the transcriptional properties of Δ513 (FIG. 5F). […]"}, "[3]": {"molecular_target": "T2, NPR1-dependent oligomer on the PR-1 promoter (Arabidopsis thaliana, UniProt P93002)", "T2 construct": "in wild-type plants (WT), such an oligomer forms on the PR-1 promoter; endogenous in cells; host or cells: wild-type Arabidopsis plants", "T2 sequence (P93002 1-593)": "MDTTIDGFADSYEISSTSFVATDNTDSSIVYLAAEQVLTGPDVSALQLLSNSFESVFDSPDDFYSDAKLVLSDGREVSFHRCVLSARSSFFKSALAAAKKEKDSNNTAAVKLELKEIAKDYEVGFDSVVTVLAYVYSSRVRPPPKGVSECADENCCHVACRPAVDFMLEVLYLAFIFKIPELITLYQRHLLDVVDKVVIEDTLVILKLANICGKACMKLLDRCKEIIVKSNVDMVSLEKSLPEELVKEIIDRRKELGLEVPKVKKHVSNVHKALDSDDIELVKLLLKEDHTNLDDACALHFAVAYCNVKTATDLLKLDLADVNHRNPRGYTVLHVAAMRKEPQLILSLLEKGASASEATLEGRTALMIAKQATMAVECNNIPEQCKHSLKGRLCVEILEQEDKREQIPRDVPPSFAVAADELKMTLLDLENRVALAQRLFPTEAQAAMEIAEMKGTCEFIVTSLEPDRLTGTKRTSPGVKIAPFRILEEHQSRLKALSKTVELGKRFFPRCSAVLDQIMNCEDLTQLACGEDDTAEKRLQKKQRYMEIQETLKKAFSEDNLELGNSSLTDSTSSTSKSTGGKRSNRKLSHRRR", "test": "Cross-linked-chromatin chromatography (3C Method)", "format": "in vivo", "conditions": "wild-type plants, region −734 to −833", "experimental": "Plant treatment, cross-linking, sonication, and cross-linking reversal were performed as for chromatin-immunoprecipitation (Rochon et al., 2006). Chromatography was as described under “Chromatography”. qPCR was performed with PR1 and Ubiquitin5 primers. PR-1 values were normalized against Ubiquitin5 (see Table 1 for primer sequence).\nAlthough there are no decisive methods to test the stoichiometry of a protein in vivo, it was determined whether or not NPR1-dependent oligomers form on DNA in vivo by combining chromatin cross-linking, gel filtration, and qPCR (the 3C Method). The rationale was that, if an NPR1-dependent oligomer forms on the PR1 promoter in vivo, the presence of PR1 should be detectable by qPCR in the void fraction of an S300 after the chromatin had been cross-linked and sheared by sonication."}, "NPR1 [4]": {"molecular_target": "T1, NPR1", "test": "classical non-equilibrium solid-phase [14C]SA binding", "conditions": "radiolabeled SA, washes to remove unbound ligand", "experimental": "To test whether NPR1 can bind SA directly, a classic method to assess Kd values was used, which involved coupling NPR1 to a solid phase and incubating it with radiolabeled SA, followed by washes to remove unbound ligand and counting the amount of ligand bound to NPR1."}}, "data": [{"smiles": "O=C(O)c1ccccc1O", "note": "[SA, Salicylic acid]", "values": [{"measurement": "amount of SA bound to NPR1 above a no-protein experiment", "setting": "NPR1 [1]", "value": "~4 orders of magnitude"}, {"measurement": "maximum binding (Bmax)", "setting": "NPR1 [1]; saturation binding", "value": "0.96±0.01", "unit": "mol SA per mol NPR1"}, {"measurement": "transcription activity of Δ513 co-expressed with BTB/POZ in SA-treated cells", "setting": "[2]", "value": "unaffected by the BTB/POZ"}, {"measurement": "NPR1-dependent oligomer on the PR-1 promoter (void fraction, qPCR)", "setting": "[3]", "value": "not after a treatment with SA"}, {"measurement": "binding of SA to NPR1 coupled to a solid phase", "setting": "NPR1 [4]", "value": "not above that observed with a solid phase containing no protein"}]}]}
